Assay [1] addresses IB type secretory type PLA2 (Homo sapiens, UniProt P04054). The settings on record: already reported, Yokota et al., Biochim. Biophys. Acta (1999) 1438, 213-222; cited from earlier work.
The target of assay [2] is T1, IIA type secretory type PLA2 (Homo sapiens, UniProt P14555).
T1 sequence (P14555 21-144): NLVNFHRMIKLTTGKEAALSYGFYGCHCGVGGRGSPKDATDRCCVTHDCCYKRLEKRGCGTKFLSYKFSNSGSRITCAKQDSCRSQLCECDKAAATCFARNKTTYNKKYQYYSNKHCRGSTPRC
The settings on record: already reported, Yokota et al., Biochim. Biophys. Acta (1999) 1438, 213-222; cited from earlier work.

Assay [3] has as its target T2, human IIA type secretory PLA2 (Homo sapiens, UniProt P14555).
T2 sequence (P14555 21-144): T1 sequence (P14555 21-144)
Briefly: Inhibition of secretory PLA2 activity, release of 14C-oleic acid from 14C-POPC. The class given is biochemical. The settings on record: purified human IIA type (10 ng); 1 mM POPC, 3 mM deoxycholic acid, 2 mM CaCl2, pH 8.0, 40° C., 60 min; FIG. 4. How it is done:
(§1) Inhibitory activity against this novel type of human secretory type PLA2 was determined with Indoxam that is a 1-oxamoylindolidine derivative. It has already been reported that Indoxam inhibits the enzymatic activities of IIA type and IB type secretory type PLA2 (Yokota et al., Biochim. Biophys. Acta (1999) 1438, 213-222). The PLA2 activities were determined by the measurement of the quantity of released ^14C-oleic acid from ^14C-labeled 1-palmitoyl-2-oleoyl-phosphatidylcholine (POPC), according to the Draheim et al.'s method (J. Med. Chem., (1996) 39, 5159-5175). In the solution composed of 50 mM Tris-HCl (pH 8.0), 200 mM NaCl, 2 mM CaCl2, and 1 mg/ml bovine serum albumin, the substrates composed of 1 mM POPC (the mixture of about 100,000 cpm ^-C-POPC and unlabeled POPC) and 3 mM deoxycholic acid were incubated with each secretory PLA2 in the presence of various concentrations of Indoxam at 40° C. for 60 min. Then, the quantity of released ^-C-oleic acid was measured. Purified materials were used in the case with human IB type (2 ng), IIA type (10 ng) and X type (4 ng). […]
(§2) The quantity of released ^14C-oleic acid from ^14C-POPC by each human secretory type PLA2 in the absence of Indoxam was regarded as 100% and the quantity of released ^14C-oleic acid in the presence of each concentration of Indoxam was shown as %.

Assay [4] addresses T3, human PLA2 of this invention (IID type) (Homo sapiens, UniProt Q9UNK4).
T3 construct: made in house
T3 sequence (Q9UNK4 21-145): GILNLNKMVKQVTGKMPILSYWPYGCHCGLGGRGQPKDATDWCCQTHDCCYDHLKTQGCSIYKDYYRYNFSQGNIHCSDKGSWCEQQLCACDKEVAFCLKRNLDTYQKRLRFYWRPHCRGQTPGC
The assay is described as above. The conditions noted are these: IID type from culture supernatant of CHO cells; 1 mM POPC, 3 mM deoxycholic acid, 2 mM CaCl2, pH 8.0, 40° C., 60 min; FIG. 4. The format is biochemical. How it is done:
as §1, §2

The structures appear in SMILES notation.

Sequence of IB type secretory type PLA2 (P04054 23-148): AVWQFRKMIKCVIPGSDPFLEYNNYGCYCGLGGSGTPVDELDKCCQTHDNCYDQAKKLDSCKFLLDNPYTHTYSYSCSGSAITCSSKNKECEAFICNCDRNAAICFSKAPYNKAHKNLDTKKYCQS

For `CCc1c(C(=O)C(N)=O)c2c(OCC(=O)O)cccn2c1Cc1ccccc1-c1ccccc1` [Indoxam], the “inhibition of enzymatic activity of IB type secretory type PLA2” value in assay [1] was “inhibits”. Besides, the “inhibition of enzymatic activity of IIA type secretory type PLA2” value in assay [2] was “inhibits”. For the same compound, the “inhibition of enzymatic activity (released 14C-oleic acid as % of that without Indoxam)” value in assay [3] and in assay [4] was “strongly inhibits” in each case.

The values above are taken from patent publication US6967095B2, “Human secretory type phospholipase A2” (Shionogi & Co., Ltd., priority 1998, dated 2005).
